# Test results published in patent publication US8034822B2, “Glucokinase activators” (Takeda San Diego, Inc., priority 2006, dated 2011).
# Molecular target: T1, glucokinase (GK) (Homo sapiens, UniProt P35557)
# T1 construct: I.D. No. 1 corresponds to residues 12-465 of glucokinase; made in house; host or cells: E. coli DH10b-T1r, pFLAG-CTC plasmid
# T1 sequence (P35557 with tags, fused parts or gaps isoform P35557-2): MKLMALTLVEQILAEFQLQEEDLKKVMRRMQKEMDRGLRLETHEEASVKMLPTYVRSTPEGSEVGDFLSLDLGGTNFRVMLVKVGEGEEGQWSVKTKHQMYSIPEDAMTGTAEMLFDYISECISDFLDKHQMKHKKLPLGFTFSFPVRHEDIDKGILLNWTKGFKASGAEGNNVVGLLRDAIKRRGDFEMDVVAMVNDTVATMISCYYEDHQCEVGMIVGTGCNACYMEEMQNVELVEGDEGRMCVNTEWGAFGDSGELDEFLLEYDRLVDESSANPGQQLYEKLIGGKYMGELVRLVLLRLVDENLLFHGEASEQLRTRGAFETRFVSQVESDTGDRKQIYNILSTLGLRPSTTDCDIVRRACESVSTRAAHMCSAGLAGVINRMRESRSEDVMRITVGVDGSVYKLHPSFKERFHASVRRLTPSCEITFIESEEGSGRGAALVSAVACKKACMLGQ
# Test: enzymatic glucokinase activity assay (ATP consumption, KinaseGlo luminescence)
# Format: biochemical
# Settings: Against GK; Kact = concentration giving 50% of maximal increase in GK activity; 5 μM ATP, 5 mM Glucose, 60 min room temperature; values given as bins; read-out: pKact
# Source text: The activity of compounds as glucokinase activators may be assayed in vitro, in vivo or in a cell line. Provided below is an enzymatic glucokinase activity assay.
# Purified glucokinase may be obtained as follows. DNA encoding residues 12-465 of the full-length sequence of the human enzyme may be amplified by PCR and cloned into the HindIII and EcoRI sites of pFLAG-CTC (Sigma). SEQ. I.D. No. 1 corresponds to residues 12-465 of glucokinase.
# The expression of recombinant glucokinase protein may be carried out by transformation and growth of DH10b-T1r E. coli cells incorporating the (pFLAG-CTC) plasmid in LB media. Protein expression can be induced in this system by the addition of IPTG to the culture medium.
# Recombinant protein may be isolated from cellular extracts by passage over Sepharose Q Fast Flow resin (Pharmacia). This partially purified GK extract may then be further purified by a second passage over Poros HQ10 (Applied Biosystems). The purity of GK may be determined on denaturing SDS-PAGE gel. Purified GK may then be concentrated to a final concentration of 20.0 mg/ml. After flash freezing in liquid nitrogen, the proteins can be stored at −78° C. in a buffer containing 25 mM TRIS-HCl pH 7.6, 50 mM NaCl, and 0.5 mM TCEP.
# The activation properties of compounds for GK may be determined using a black 384-well-plate format under the following reaction conditions: 25 mM Hepes pH 7.2, 25 mM NaCl, 10 mM MgCl2, 0.01% Brij35, 1 mM DTT, 5 μM ATP, 5 mM Glucose 2% DMSO. The amount of ATP consumed may be determined quantitatively by addition of equal volume of luciferase reagent (luciferase+beetle luciferin—KinaseGlo Luminescent Kinase Assay kit from Promega). The luminescence intensity may be measured by using the Analyst HT from LJL Biosystems.
# The assay reaction may be initiated as follows: 4 μl of substrate mixture (12.5 μM ATP and 12.5 mM Glucose) was added to each well of the plate, followed by the addition of 2 μl of activator (2 fold serial dilutions for 11 data points for each activator) containing 10% DMSO. 4 μL of 1.25 nM GK solution may be added to initiate the reaction. The reaction mixture may then be incubated at room temperature for 60 min, and quenched and developed by addition of 10 μL of luciferase reagent. Luminescence intensities of the resulting reaction mixtures may be measured after a 10 min incubation at room temperature. The luminescence intensity may be measured by using the Analyst HT from LJL Biosystems.
# pKact and % ACTmax values may be calculated by non-linear curve fitting of the compound concentrations and luminescence intensities to a standard inhibition/activation equation.
row,SMILES,EC50
1,"COC(=O)c1ccc(NC(=O)C(CC2CCCCC2)n2cnc3c(S(C)(=O)=O)csc3c2=O)nc1 (stereo not shown) [Compound 102, Methyl 6-(3-cyclohexyl-2-(7-(methylsulfonyl)-4-oxothieno[3,2-d]pyrimidin-3(4H)-yl)propanamido)nicotinate]",1000 to 1580 nM
2,"CC(C)S(=O)(=O)c1csc2c(=O)n(C(CC3CCCCC3)C(=O)Nc3ccc(F)cn3)cnc12 (stereo not shown) [Compound 105, 3-Cyclohexyl-N-(5-fluoropyridin-2-yl)-2-(7-(isopropylsulfonyl)-4-oxothieno[3,2-d]pyrimidin-3(4H)-yl)propanamide]",1000 to 1580 nM
3,"Cc1ccc(NC(=O)C(CC2CCCCC2)n2cnc3c(cnn3C)c2=O)nc1 (stereo not shown) [Compound 110, 3-Cyclohexyl-2-(1-methyl-4-oxo-1H-pyrazolo[3,4-d]pyrimidin-5(4H)-yl)-N-(5-methylpyridin-2-yl)propanamide]",≥ 2000 nM
4,"O=C(NC1CC1)c1ccc2c(=O)n(C(CC3CCCCC3)C(=O)Nc3ccc(F)cn3)c(=O)[nH]c2c1 (stereo not shown) [Compound 119, 3-(3-cyclohexyl-1-(5-fluoropyridin-2-ylamino)-1-oxopropan-2-yl)-N-cyclopropyl-2,4-dioxo-1,2,3,4-tetrahydroquinazoline-7-carboxamide]",≥ 2000 nM
5,"COc1ccc2ncn(C(CC3CCCCC3)C(=O)Nc3nccs3)c(=O)c2c1 (stereo not shown) [Compound 131, 3-cyclohexyl-2-(6-methoxy-4-oxoquinazolin-3(4H)-yl)-N-(thiazol-2-yl)propanamide]",≥ 2000 nM
6,"O=C(Nc1nccs1)C(CC1CCCCC1)n1cnc2c(Cl)cccc2c1=O (stereo not shown) [Compound 139, 2-(8-chloro-4-oxoquinazolin-3(4H)-yl)-3-cyclohexyl-N-(thiazol-2-yl)propanamide]",≥ 2000 nM
7,"O=C(Nc1ncc(Cl)s1)C(CC1CCCCC1)n1cnc2c(C(F)(F)F)cccc2c1=O (stereo not shown) [Compound 142, N-(5-chlorothiazol-2-yl)-3-cyclohexyl-2-(4-oxo-8-(trifluoromethyl)-quinazolin-3(4H)-yl)propanamide]",≥ 2000 nM
8,"CS(=O)(=O)c1ccc2c(=O)n(C(CC3CCCCC3)C(=O)Nc3ccc(C(N)=O)cn3)cnc2c1 (stereo not shown) [Compound 158, 6-(3-cyclohexyl-2-(7-(methylsulfonyl)-4-oxoquinazolin-3(4H)-yl)propanamido)nicotinamide]",501 to 794 nM
9,"O=C(Nc1ccc(F)cn1)C(CC1CCCCC1)n1cnc2ccc(F)cc2c1=O (stereo not shown) [Compound 159, 3-cyclohexyl-2-(6-fluoro-4-oxoquinazolin-3(4H)-yl)-N-(5-fluoropyridin-2-yl)propanamide]",≥ 2000 nM
10,"O=C(Nc1ccc(Cl)cn1)C(CC1CCCCC1)n1cnc2ccc(F)cc2c1=O (stereo not shown) [Compound 160, N-(5-chloropyridin-2-yl)-3-cyclohexyl-2-(6-fluoro-4-oxoquinazolin-3(4H)-yl)propanamide]",1000 to 1580 nM
11,"CS(=O)(=O)c1ccc2c(=O)n(C(CC3CCCCC3)C(=O)Nc3ccc(C#N)cn3)cnc2c1 (stereo not shown) [Compound 166, N-(5-cyanopyridin-2-yl)-3-cyclohexyl-2-(7-(methylsulfonyl)-4-oxoquinazolin-3(4H)-yl)propanamide]",≥ 2000 nM
12,"COc1ccc2ncn(C(CC3CCCCC3)C(=O)Nc3ccc(C(N)=O)cn3)c(=O)c2c1 (stereo not shown) [Compound 167, 6-(3-cyclohexyl-2-(6-methoxy-4-oxoquinazolin-3(4H)-yl)propanamido)nicotinamide]",501 to 794 nM
13,"COc1ccc2ncn(C(CC3CCCCC3)C(=O)Nc3ccc(Cl)cn3)c(=O)c2c1 (stereo not shown) [Compound 168, N-(5-chloropyridin-2-yl)-3-cyclohexyl-2-(6-methoxy-4-oxoquinazolin-3(4H)-yl)propanamide]",501 to 794 nM
14,"O=C(NC1CC1)c1ccc2c(=O)n(C(CC3CCCCC3)C(=O)Nc3ncc(Cl)s3)c(=O)[nH]c2c1 (stereo not shown) [Compound 172, 3-(1-(5-chlorothiazol-2-ylamino)-3-cyclohexyl-1-oxopropan-2-yl)-N-cyclopropyl-2,4-dioxo-1,2,3,4-tetrahydroquinazoline-7-carboxamide]",501 to 794 nM
15,"O=C(NC1CCCC1)c1ccc2c(=O)n(C(CC3CCCCC3)C(=O)Nc3ncc(Cl)s3)cnc2c1 (stereo not shown) [Compound 173, 3-(1-(5-chlorothiazol-2-ylamino)-3-cyclohexyl-1-oxopropan-2-yl)-N-cyclopentyl-4-oxo-3,4-dihydroquinazoline-7-carboxamide]",501 to 794 nM

# Continued, values first:
row,EC50,SMILES
1,501 to 794 nM,"COC(=O)c1ccc(NC(=O)C(CC2CCCCC2)n2cnc3cc(S(=O)(=O)CC4CC4)ccc3c2=O)nc1 (stereo not shown) [Compound 90, 6-[3-Cyclohexyl-2-(7-cyclopropylmethanesulfonyl-4-oxo-4H-quinazolin-3-yl)-propionylamino]-nicotinic acid methyl ester]"
2,≤ 398 nM,"NC(=O)c1ccc(NC(=O)C(CC2CCCCC2)n2cnc3cc(S(=O)(=O)C4CC4)ccc3c2=O)nc1 (stereo not shown) [Compound 91, 6-[3-Cyclohexyl-2-(7-cyclopropanesulfonyl-4-oxo-4H-quinazolin-3-yl)-propionylamino]-nicotinamide]"
3,501 to 794 nM,"CS(=O)(=O)c1cc(Cl)c2ncn(C(CC3CCCCC3)C(=O)Nc3ccc(C(N)=O)cn3)c(=O)c2c1 (stereo not shown) [Compound 92, 6-[2-(8-Chloro-6-methanesulfonyl-4-oxo-4H-quinazolin-3-yl)-3-cyclohexyl-propionylamino]-nicotinamide]"
4,501 to 794 nM,"CS(=O)(=O)c1ccc2ncn([C@@H](CC3CCCCC3)C(=O)Nc3ccc(C(N)=O)cn3)c(=O)c2c1 [Compound 93, 6-[3-Cyclohexyl-2-(6-methanesulfonyl-4-oxo-4H-quinazolin-3-yl)-propionylamino]-nicotinamide]"
5,501 to 794 nM,"COC(=O)c1ccc(NC(=O)C(CC2CCCCC2)n2cnc3c(S(=O)(=O)C(C)C)csc3c2=O)nc1 (stereo not shown) [Compound 104, Methyl 6-(3-cyclohexyl-2-(7-(isopropylsulfonyl)-4-oxothieno[3,2-d]pyrimidin-3(4H)-yl)propanamido)nicotinate]"
6,501 to 794 nM,"O=C(NC1CC1)c1ccc2c(=O)n(C(CC3CCCCC3)C(=O)Nc3ccc(F)cn3)cnc2c1 (stereo not shown) [Compound 118, 3-(3-Cyclohexyl-1-(5-fluoropyridin-2-ylamino)-1-oxopropan-2-yl)-N-cyclopropyl-4-oxo-3,4-dihydroquinazoline-7-carboxamide]"
7,≤ 398 nM,"NC(=O)c1ccc(NC(=O)C(CC2CCCCC2)n2cnc3cc(C(=O)NC4CC4)ccc3c2=O)nc1 (stereo not shown) [Compound 169, 3-(1-(5-carbamoylpyridin-2-ylamino)-3-cyclohexyl-1-oxopropan-2-yl)-N-cyclopropyl-4-oxo-3,4-dihydroquinazoline-7-carboxamide]"
8,≤ 398 nM,"O=C(NC1CC1)c1ccc2c(=O)n(C(CC3CCCCC3)C(=O)Nc3ncc(Cl)s3)cnc2c1 (stereo not shown) [Compound 170, 3-(1-(5-chlorothiazol-2-ylamino)-3-cyclohexyl-1-oxopropan-2-yl)-N-cyclopropyl-4-oxo-3,4-dihydroquinazoline-7-carboxamide]"
9,≤ 398 nM,"O=C(NC1CC1)c1ccc2c(=O)n(C(CC3CCCCC3)C(=O)Nc3ccc(Cl)cn3)cnc2c1 (stereo not shown) [Compound 171, 3-(1-(5-chloropyridin-2-ylamino)-3-cyclohexyl-1-oxopropan-2-yl)-N-cyclopropyl-4-oxo-3,4-dihydroquinazoline-7-carboxamide]"
10,≤ 398 nM,"CNC(=O)c1ccc2c(=O)n(C(CC3CCCCC3)C(=O)Nc3ncc(Cl)s3)cnc2c1 (stereo not shown) [Compound 175, 3-(1-(5-chlorothiazol-2-ylamino)-3-cyclohexyl-1-oxopropan-2-yl)-N-methyl-4-oxo-3,4-dihydroquinazoline-7-carboxamide]"
